# Data published in US9999672B2, “Pharmaceutical compositions of fumaric acid esters” (XenoPort, Inc., priority 2014, dated 2018).
# Like-named read-outs stand apart in the source and are kept apart here.
# What was measured:
# [1] = type: physicochemical; settings: 53 h
# Description: Approximately 50 mg (N,N-diethylcarbamoyl)methyl methyl (2E)but-2-ene-1,4-dioate powder was spread into a thin layer (˜1 mm) in open quartz containers. The sample was then placed in an ICH2 Photoreactor (Luzchem Research Inc.) with 16 cool white fluorescent lamps (F8T5/CW-8 Watt) installed. The light power was 22.8×10^3 lux with low level of near UV light (320-400 nm) at 2.2 watt/m^2. The sample was taken out after 53 hours to achieve a light exposure of 1.2 million lux hours. The sample solution was prepared at 0.2 mg/mL in diluent (water/acetonitrile/H3PO4 (80/20/0.05 by volume)).
# To quantify the photodegratation of the (N,N-diethylcarbamoyl)methyl methyl (2E)but-2-ene-1,4-dioate powder, the presence of (N,N-diethylcarbamoyl)methyl (1S,3S,2R,4R)-2-{[(N,N-diethylcarbamoyl)methyl]oxycarbonyl}-3,4-bis(methoxycarbonyl)cyclobutanecarboxylate (“compound (1)”) was quantified. The structure of compound (1) is shown below:
# The amount (weight percent) of compound (1) in the sample was determined by reverse phase HPLC using a C18 column and a 30-minute gradient method according to Table 1 where Mobile Phase A is water/0.05% H3PO4 and Mobile Phase B is water/acetonitrile/H3PO4 (10/90/0.05 by volume) with UV detection at 210 nm. The amount of compound (1) found was 29.0 wt %.
# [2] = type: physicochemical; settings: 53 h, 0.1 mg/mL, pH 4
# Description: A quartz flask containing approximately 20 mL of 0.1 mg/mL (N,N-diethylcarbamoyl)methyl methyl (2E)but-2-ene-1,4-dioate in 50 mM pH 4.0 citrate buffer was placed in an ICH2 Photoreactor (Luzchem Research Inc.) with 16 cool white fluorescent lamps (F8T5/CW-8 Watt) installed. The light power was 22.8×10^3 lux with low level of near UV light (320-400 nm) at 2.2 watt/m^2. The sample was taken out after 53 hours to achieve a light exposure of 1.2 million lux hours.
# To quantify the photodegratation of the (N,N-diethylcarbamoyl)methyl methyl (2E)but-2-ene-1,4-dioate powder, the presence of (N,N-diethylcarbamoyl)methyl methyl (2Z)but-2-ene-1,4-dioate (“compound (2)”) was quantified. The structure for compound (2) is shown below:
# The sample was analyzed using the same HPLC method as described in Example 1. The amount of compound (2) found was 22.3 wt %.
# [3] = type: physicochemical; settings: 2.1 h
# Description: Approximately 50 mg (N,N-Diethylcarbamoyl)methyl methyl (2E)but-2-ene-1,4-dioate powder was spread into a thin layer in open quartz containers. The sample was then placed in an ICH2 Photoreactor (Luzchem Research Inc.) with 16 near-UV fluorescent lamps (Hitachi FL8BL-B) installed. The near-UV light (320-400 nm) power was 94.2 watt/m^2. The sample was taken out after 2.1 hours to achieve a light exposure of 200 watt hour/m^2. The sample was prepared and analyzed the same way as described in Example 1. The amount of compound (1) found was 10.3 wt %.
smiles,measurement,setting,value
"CCN(CC)C(=O)COC(=O)/C=C/C(=O)OC [(N,N-Diethylcarbamoyl)methyl methyl (2E)but-2-ene-1,4-dioate]",amount of compound (1) found (photodegradant),[1],29.0 wt %
same,amount of compound (2) found (2Z isomer photodegradant),[2],22.3 wt %
same,amount of compound (1) found (photodegradant),[3],10.3 wt %
